Target: T1, Notum (core, 81–451C330S) (Homo sapiens, UniProt Q6P988, C330S)
T1 construct: high-throughput biochemical assay with Notum (81–451C330S) and OPTS as a synthetic fluorescent substrate; made in house
T1 sequence (Q6P988 81-451 C330S): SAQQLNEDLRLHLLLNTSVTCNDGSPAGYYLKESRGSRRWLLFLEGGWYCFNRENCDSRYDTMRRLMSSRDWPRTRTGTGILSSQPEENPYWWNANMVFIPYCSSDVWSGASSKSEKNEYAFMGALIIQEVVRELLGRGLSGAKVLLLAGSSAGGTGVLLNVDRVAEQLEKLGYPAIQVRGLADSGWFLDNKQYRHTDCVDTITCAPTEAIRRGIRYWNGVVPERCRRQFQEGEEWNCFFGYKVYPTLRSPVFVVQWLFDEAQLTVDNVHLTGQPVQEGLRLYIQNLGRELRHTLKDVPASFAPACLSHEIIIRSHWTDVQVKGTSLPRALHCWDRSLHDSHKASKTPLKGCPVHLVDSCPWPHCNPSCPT
Assay: Notum-OPTS biochemical assay, Notum (81–451C330S)
Conditions: Table 1; mean ± s.d. of n = 2–6; inactive = <20% inhibition @ 10 μM; >10 = 20–50% inhibition @ 10 μM; 2a covalent, IC50 time-dependant
Description: Notum inhibitors 3–5 (Table 1, Table 2, Table 3, Table 4) were either purchased or prepared using established synthetic methods from readily available starting materials (Scheme 1). Where necessary, the synthesis of many of these amines (e.g. 6) have been reported previously and full details of their preparation have been included in the Experimental Section. Notum inhibition activity was determined using the standard Notum-OPTS biochemical assay using IC50 values. These values were used to compare relative activities with covalent inhibitors under carefully regulated assay conditions. […] Selected inhibitors were screened for inhibition of Notum activity in a TCF/LEF Reporter (Luciferase) cell line with exogenous WNT3a and Notum, and soaked into Notum crystals to determine their binding modes and evidence of MoA.
Methods have been described in detail.

SMILES | Notum IC50
CC(=O)N1CCC(c2ccccc2)C1 (stereo not shown) [Compound 3f, 1-(3-Phenylpyrrolidin-1-yl)ethan-1-one] | inactive ^c
CC(=O)n1cnc2ccccc21 [Compound 3l, 1-(1H-Benzo[d]imidazole-1-yl)ethan-1-one] | inactive ^c

Same assay, conditions: Table 1; mean ± s.d. of n = 2–6; inactive = <20% inhibition @ 10 μM; >10 = 20–50% inhibition @ 10 μM; 2a covalent, IC50 time-dependant; read-out: Notum IC50

SMILES | IC50
CC(=O)n1ccc2ccccc21 [Compound 3b, 1-(1H-Indol-1-yl)ethan-1-one] | 5.3 ± 1.2 µM
CC(=O)N1CCCc2ccccc21 [Compound 3c, 1-(3,4-Dihydroquinolin-1(2H)-yl)ethan-1-one] | 2.5 ± 1 µM
CC(=O)N1Cc2ccccc2C1 [Compound 3d, 1-(Isoindolin-2-yl)ethan-1-one] | 2.2 ± 0.4 µM
CC(=O)N1CCc2ccccc2C1 [Compound 3e, 1-(3,4-Dihydroisoquinolin-2(1H)-yl)ethan-1-one] | 8 ± 2.2 µM
O=C1CCCN1c1ccccc1 [Compound 3g, 1-Phenylpyrrolidin-2-one] | > 10 µM
CC(=O)N(C)c1ccccc1C [Compound 3h, N-Methyl-N-(o-tolyl)acetamide] | > 10 µM
CC(=O)N1CC(=O)c2ccccc21 [Compound 3i, 1-Acetylindolin-3-one] | 0.69 ± 0.12 µM
CC(=O)N1C(=O)Cc2ccccc21 [Compound 3j, 1-Acetylindolin-2-one] | 3.2 ± 0.66 µM
CC(=O)n1ncc2ccccc21 [Compound 3k, 1-(1H-Indazol-1-yl)ethan-1-one] | > 10 µM
CC(=O)N1CCOc2ccccc21 [Compound 3m, 1-(2,3-Dihydro-4H-benzo[b][1,4]oxazin-4-yl)ethan-1-one] | 2.8 ± 1.8 µM
CC(=O)N1CCSc2ccccc21 [Compound 3n, 1-(2,3-Dihydro-4H-benzo[b][1,4]thiazin-4-yl)ethan-1-one] | 3.6 ± 0.1 µM
CC(=O)N1CCS(=O)(=O)c2ccccc21 [Compound 3o, 1-(1,1-Dioxido-2,3-dihydro-4H-benzo[b][1,4]thiazin-4-yl)ethan-1-one] | > 10 µM

Same assay, conditions: Table 2; mean ± s.d. of n = 4–12; >10 = 20–50% inhibition @ 10 μM; read-out: Notum IC50

SMILES | IC50
CC(=O)N1c2ccccc2CC1C (stereo not shown) [Compound 4a, 1-(2-Methylindolin-1-yl)ethan-1-one] | 2.4 ± 1.2 µM
CC(=O)N1CC(C)c2ccccc21 (stereo not shown) [Compound 4b, 1-(3-Methylindolin-1-yl)ethan-1-one] | 0.26 ± 0.08 µM
CC(=O)N1CC(C)(C)c2ccccc21 [Compound 4c, 1-(3,3-Dimethylindolin-1-yl)ethan-1-one] | 1.4 ± 0.4 µM
CC(=O)N1CC2(CCC2)c2ccccc21 [Compound 4e, 1-(Spiro[cyclobutane-1,3′-indolin]-1′-yl)ethan-1-one] | 1.8 ± 1.2 µM
CC(=O)N1c2ccccc2C2(C)CC12 (stereo not shown) [Compound 4f, 1-(6b-Methyl-1a,6b-dihydrocyclopropa[b]indol-2(1H)-yl)ethan-1-one] | 4.1 ± 0.8 µM
CC(=O)N1CCc2cc(Cl)ccc21 [Compound 4h, 1-(5-Chloroindolin-1-yl)ethan-1-one] | 0.095 ± 0.014 µM
CC(=O)N1CCc2ccc(Cl)cc21 [Compound 4i, 1-(6-Chloroindolin-1-yl)ethan-1-one] | 1.4 ± 0.2 µM
CC(=O)N1CCc2cccc(Cl)c21 [Compound 4j, 1-(7-Chloroindolin-1-yl)ethan-1-one] | 6.4 ± 0.9 µM
CC(=O)N1CCc2c(C)cccc21 [Compound 4k, 1-(4-Methylindolin-1-yl)ethan-1-one] | 0.083 ± 0.016 µM
CC(=O)N1CCc2c(C#N)cccc21 [Compound 4l, 1-Acetylindoline-4-carbonitrile] | 1.5 ± 0.2 µM
CC(=O)N1CCc2c(F)cccc21 [Compound 4m, 1-(4-Fluoroindolin-1-yl)ethan-1-one] | 0.093 ± 0.002 µM
COc1cccc2c1CCN2C(C)=O [Compound 4n, 1-(4-Methoxyindolin-1-yl)ethan-1-one] | 0.67 ± 0.07 µM
CC(=O)N1CCc2c(C3CC3)cccc21 [Compound 4p, 1-(4-Cyclopropylindolin-1-yl)ethan-1-one] | 0.29 ± 0.14 µM
CC(=O)N1CCc2cc(C)ccc21 [Compound 4q, 1-(5-Methylindolin-1-yl)ethan-1-one] | 0.22 ± 0.02 µM

Same assay, conditions: vs 3a; more potent

SMILES | fold increase in Notum inhibition over 3a
CC(=O)N1CC(C)c2ccccc21 (stereo not shown) [Compound 4b, 1-(3-Methylindolin-1-yl)ethan-1-one] | 2 fold

Same assay, conditions: vs 3a; weaker

SMILES | fold decrease in Notum inhibition compared to 3a
CC(=O)n1ccc2ccccc21 [Compound 3b, 1-(1H-Indol-1-yl)ethan-1-one] | 10 fold
CC(=O)N1CCCc2ccccc21 [Compound 3c, 1-(3,4-Dihydroquinolin-1(2H)-yl)ethan-1-one] | 6 fold
